Experiments:
[1] = Solubility in various solvents; type: physicochemical; set-up: key: +++: dissolved well; ++: almost dissolved, but not completely dissolved and somewhat precipitated; +: opaquely dispersed; −: not dissolved but precipitated
Description: Solubility properties of polyaniline ES in various organic solvents using the dopants of Examples were compared and checked in the same experimental conditions. […] After a basket mixing process, transmittances were measured and an average particle size was measured by using a particle size analyzer, and measurement results are as shown in Table 5.

[2] = Acidity / pH of doping solution, titration with 0.1 N KOH; type: physicochemical
Text: In order to confirm a doping function of the dopants of Examples, pH of a doping solution was checked by using a 0.1 N KOH solution. […] Therefore, a function as a dopant could be confirmed.

SMILES	Solubility in BuO—EtOH [1]	Solubility in CHCl3 [1]	Solubility in H2O [1]	Solubility in MEK [1]	Solubility in MeOH [1]	Solubility in NMP [1]	Solubility in isopropyl alcohol [1]	Solubility in m-cresol [1]	Solubility in toluene [1]	Titration (Acidity) 0.1N KOH; converted into sulfonic acid [2] [%]
Cc1cc(OCCCS(=O)(=O)O)ccc1O [Dopant VI]	+++	−	+++	+	+++	+++	+++	++	−	
O=S(=O)(O)CCCOc1ccc(OCc2ccccc2)cc1 [Dopant V]	+++	−	+++	++	+++	+++	++	++	−	
Cc1cccc(OCCCS(=O)(=O)O)c1 [Dopant I]	++	−	+++	+	+++	++	+++	++	−	86
O=S(=O)(O)CCCOc1ccc(-c2ccccc2)cc1 [Dopant IV]	+	−	+++	+	+++	+++	+	+++	−	
O=S(=O)(O)CCCOc1ccc(O)cc1 [Dopant II]	+++	−	+++	+	+++	+++	++	++	−	85
